Measured values reported in US20060235062A1, “Novel heterocyclic analogs of diphenylethylene compounds” (THERACOS, INC., priority 2002, published 2006).

Columns and labels:
[1] = system: 3T3-L1 adipocytes; assay: Glucose uptake in differentiated 3T3-L1 adipocytes; assay type: cell-based; details: for % Glucose uptake 0.1 μm / % Glucose uptake 1.0 μm: average of quadruplicate ± SD
Experimental: Referring to FIG. 8 glucose uptake in 3T3-L1 differentiated adipocytes was measured after treatment with the test compound. The assay was conducted according to the method of Tafuri, Endocrinology, 137, 4706-4712 (1996). The serum-starved cells were treated with the test compound for 48 hours at different concentrations, then washed and incubated in glucose-free media for 30 minutes at 37° C. Then ^14C-deoxyglucose was added and uptake was monitored for 30 minutes under incubation. After washing, the cells were lysed (0.1% SIDS) and counted.
Basal glucose uptake was measured in differentiated 3T3-L1 adipocytes following the protocol of Tafuri (6) with modifications. Briefly, 3T3-L1 fibroblasts, obtained from ATCC (Manassas, Va.), were differentiated to adipocytes by treating cells with porcine insulin (1 μg/ml for 4 days), dexamethasone (0.25 μM for first 2 days) and isobutyl methyl xanthine (IBMX, 0.5 mM for first 2 days) (all from Sigma Chemicals, St Louis, Mo.) following the protocol of Frost and Lane (7). Differentiated adipocytes were incubated in Dulbecco's Modified Eagle Medium (DMEM) containing 10% fetal bovine serum (GibcoBRL, Gaithersburg, Md.) with various concentrations of Compound 11 or vehicle (0.1% DMSO) for 48 h in 24-well plates, in triplicate. Cells were washed with phosphate buffered saline (PBS, 150 mM NaCl, 1 mM KH2PO4, 3 mM Na2HPO4; pH 7.4) and incubated in glucose-free DMEM for 2 h at 37° C. The cells were washed 3 times with Krebs Ringer Phosphate Buffer (KRP). Glucose uptake was initiated by addition of 0.25 μCi 2-^14C(U)-deoxy-D-glucose (300 μCi/mmol, American Radiolabeled Chemicals Inc., St Louis, Mo.) per well and the cells incubated for 10 min at room temperature in the presence of 0.1 mmol cold 2-deoxy-D-glucose. Finally, the cells were washed three times with ice-cold PBS containing 10 mM cold glucose, lysed with 0.5% SDS, and counted in a scintillation counter (Beckman LS6500).

[2] = molecular target: T1, Human PPAR-γ2 (Homo sapiens, UniProt P37231); assay: PPAR-gamma mediated transactivation of PPRE-luciferase reporter; assay type: cell-based; details: for EC50: cells transfected with human PPAR-gamma2, 24 hours, non-linear regression, read-out: EC50, induction of PPAR-γ mediated luciferase activity
T1 construct: inserting the PPARγ2 cDNA coding region into pcDNA3.1+ vector; expressed in transfected cells; host or cells: HEK293 cells (ATCC)
T1 sequence (P37231 1-505): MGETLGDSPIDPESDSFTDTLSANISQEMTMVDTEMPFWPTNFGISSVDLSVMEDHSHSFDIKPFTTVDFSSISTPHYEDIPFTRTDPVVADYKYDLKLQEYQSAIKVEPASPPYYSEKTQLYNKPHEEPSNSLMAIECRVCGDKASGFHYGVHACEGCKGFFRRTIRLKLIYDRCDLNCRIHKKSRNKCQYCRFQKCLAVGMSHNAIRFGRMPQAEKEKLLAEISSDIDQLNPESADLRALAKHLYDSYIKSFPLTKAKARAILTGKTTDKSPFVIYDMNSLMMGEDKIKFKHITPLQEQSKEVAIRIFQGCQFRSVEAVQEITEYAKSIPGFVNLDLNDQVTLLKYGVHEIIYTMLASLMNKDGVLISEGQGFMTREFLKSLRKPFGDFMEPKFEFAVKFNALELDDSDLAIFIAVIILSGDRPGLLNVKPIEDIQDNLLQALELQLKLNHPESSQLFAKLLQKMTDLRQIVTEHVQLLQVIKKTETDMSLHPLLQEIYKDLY
Experimental: Human PPAR-γ2 expression vector was constructed by inserting PPAR-γ2 encoding region into pcDNA3.1+ vector (Invitrogen, Carlsbad, Calif.). Luciferase reporter vector was constructed by ligating PPRE response element adjacent to the upstream of Firefly luciferase coding region. Control vector, pRL-SV40 expressing Renilla luciferase was purchased from Promega (Madison, Wis.).
About 2.7×10^4 293 cells (ATCC, Manassas, Va.) were plated into a 35 mm culture well and maintained in Eagle's Minimal Essential Medium (ATCC, Manassas, Va.) supplemented with 10% heat inactivated horse serum (ATCC, Manassas, Va.) for 24 hours. Expression, reporter and control vectors (2.5 ng control and 100 ng others per culture well) were transfected by LI[…]™ Reagent (Invitrogen, Carlsbad, Calif.). Transfection reagent and DNA were prepared according to manufacture's recommendations and incubated with cells for 3 hours followed by adding equal volume EMEM supplemented with 20% horse serum. Twenty-four hours after transfection, cells were treated with vehicle or compounds at indicated final concentration for 24 hours. Final concentration of vehicle was 0.001% DMSO (Sigma, ST Louis, Mo.) in medium. Vehicle and compound treatment were all conducted in triplicate. Each culture well was then assayed for a response characterized by increased Firefly luciferase activity normalized with Renilla luciferase activity.
Assays for Firefly luciferase activity and Renilla luciferase activity followed the standard protocol of Dual-luciferase Reporter® Assay System (Promega, Madison, Wis.). Briefly, 400 μl Passive Lysis Buffer was added into each culture well and all wells were placed on a shaker for 15 minutes. Five μl cell lysate of each well was added to a reaction tube. Luciferase reagent II and Stop & Glo® were injected into the reaction tube sequentially by Sirius Luminometer (Berthold Detection Systems, Pforzheim, Germany). Final reporter activity was calculated as the ratio of Firefly luciferase activity over by Renilla luciferase activity.
Human PPARγ2 expression vector was constructed by inserting the PPARγ2 cDNA coding region into pcDNA3.1+ vector (Invitrogen, Carlsbad, Calif.). The PPRE-luciferase reporter gene was the kind gift of Dr. Kenneth Feingold. The control vector, pRL-SV40 containing the Renilla luciferase cDNA was purchased from Promega (Madison, Wis.). About 2.7×10^4 HEK293 human embryonal kidney cells (ATCC) were plated into a 35-mm tissue culture dish and maintained in Eagle Modified Essential Medium (EMEM, ATCC) containing 10% heat-inactivated horse serum for 24 h. Expression, reporter (100 ng/dish) and control (2.5 ng/dish) vectors were transfected using LI[…]™ Reagent (GibcoBRL) according to manufacturer's recommendation. At 24 h after transfection, cells were treated with vehicle (0.001% DMSO in medium) or compounds at the indicated concentration and incubated for 24 h. Each treatment was conducted in triplicate. Each culture dish was assayed for firefly luciferase activity normalized by Renilla luciferase activity to account for differences in transfection efficiency. Luciferase activity was measured using the Dual-luciferase Reporter® Assay System (Promega) and a Sirius luminometer (Berthold Detection System, Pforzheim, Germany).

[3] = system: NF-kB p65; assay: NF-kB p65 activation in LPS-stimulated RAW cells (ELISA); assay type: cell-based; details: 10 μM, 1 μg/ml LPS 15 min, FIG. 15
[4] = system: AIA rats; assay: Cancellous bone loss in adjuvant induced arthritic (AIA) rats, MicroCT of right proximal tibia; assay type: in vivo, male Lewis rats

Compound	glucose uptake activity in words ([1]; 0.1 μM)	glucose uptake activity in words ([1]; 1 μM)	% Glucose uptake 0.1 μm [1]	% Glucose uptake 1.0 μm [1]	EC50 [2] [µM]	PPAR-gamma agonist potency in words ([2]; in vitro transactivation assay)	further results
COC(=O)C(=Cc1cc(OC)cc(OC)c1)c1ccc(Oc2ccc(C=C3SC(=O)NC3=O)cc2)cc1 [Compound 10, 3-(3,5-Dimethoxyphenyl)-2-{4-[4-(2,4-dioxothiazolidin-5-ylidenemethyl)-phenoxy]-phenyl}-acrylic acid methyl ester]	retained activity, but less than that of rosiglitazone	comparable to rosiglitazone	142.6 ± 7.4 % basal of the non treated cells	209.3 ± 22.6 % basal of the non treated cells	1.14	reasonable potency	
COc1cc(C=C(C(=O)O)c2ccc(Oc3ccc(CC4SC(=O)NC4=O)cc3)cc2)cc(OC)c1 (stereo not shown) [Compound 14]		comparable to rosiglitazone	108.6 ± 19.9 % basal of the non treated cells	199.5 ± 11.6 % basal of the non treated cells	0.69 ± 0.038	reasonable potency	
CCCCC/C=C/C=C1/C(=O)C=C[C@@H]1C/C=C\CCCC(=O)O [Compound 15dPGJ2, 15-deoxy-Δ^12,14-prostaglandin J2]							inhibition of the activation of NF-kB (p65) [3]: inhibited
COC(=O)C(Cc1cc(OC)cc(OC)c1)c1ccc(Oc2ccc(C=C3SC(=O)NC3=O)cc2)cc1 (stereo not shown) [Compound 17, 3-(3,5-Dimethoxyphenyl)-2-{4-[4-(2,4-dioxothiazolidin-5-ylidenemethyl)-phenoxy]-phenyl}-propionic acid methyl ester]	devoid of activity	modest activity	101.9 ± 6.8 % basal of the non treated cells	130.0 ± 27.0 % basal of the non treated cells	23.9	essentially inactive	
COC(=O)C(Cc1cc(OC)cc(OC)c1)c1ccc(Oc2ccc(CC3SC(=O)NC3=O)cc2)cc1 (stereo not shown) [Compound 18, 3-(3,5-Dimethoxyphenyl)-2-{4-[4-(2,4-dioxothiazolidin-5-ylmethyl)-phenoxy]-phenyl}-propionic acid methyl ester]	devoid of activity	modest activity	104.4 ± 5.7 % basal of the non treated cells	137.0 ± 10.1 % basal of the non treated cells	57.7	essentially inactive	
COC(=O)/C(=C\c1cc(OC)cc(OC)c1)c1ccc(Oc2ccc(CC3SC(=O)NC3=O)cc2)cc1 (stereo not shown) [Compound 23, Z-3-(3,5-Dimethoxyphenyl)-2-{4-[4-(2,4-dioxothiazolidin-5-ylmethyl)-phenoxy]-phenyl}-acrylic acid methyl ester]		essentially inactive	89.5 ± 5.6 % basal of the non treated cells	118.0 ± 3.6 % basal of the non treated cells	3.69 ± 1.45		PPAR-gamma transactivation potency relative to a comparator, in words ([2]; in vitro transactivation assay): less than one-tenth the potency of compound 11
Etanercept							less cancellous bone lost ([4]; AIA rats, treated vs vehicle): ~50%; C.Th ([4]; right proximal tibia): 198 ± 25 μm; Conn. Dens ([4]; right proximal tibia): 31.9 ± 19.7 l/mm3; SMI (0-3) ([4]; right proximal tibia): 2.8 ± 0.4; Tb.N ([4]; right proximal tibia): 2.8 ± 0.5 l/mm; BV/TV ([4]; right proximal tibia, compound 11 50 mg/kg oral, etanercept 1.67 mg/kg i.p., once daily): 12.9 ± 5.2%
Insulin: insulin, comparator in the 3T3-L1 glucose uptake test			335.2 ± 21.7 % basal of the non treated cells	345.6 ± 8.3 % basal of the non treated cells			
